Tested on: male Sprague Dawley rats
Assay: Cardiotoxicity Assay (heart-to-body weight ratio)
Format: in vivo, rat
Settings: 250 μg of test compound per kg subcutaneously once daily for 28 days, hearts weighed on day 30
Text: The cardiotoxicity assay measures the potential of a test compound to adversely affect the cardiovascular system. As thyroid hormone (T3) damages the cardiovascular system, the heart enlarges. See, e.g., Gomberg-Maitland et al., “Thyroid hormone and Cardiovascular Disease”, American Heart Journal, Vol. 135(2), pp. 187-196 (1998); Klein and Ojamaa, “Thyroid Hormone and the Cardiovascular System”, Current Opinion in Endocrinology and Diabetes, Vol. 4, pp.341-346 (1997); and Klemperer et al., “Thyroid Hormone Therapy and Cardiovascular Disease”, Progress in Cardiovascular Diseases, Vol. 37 (4), pp. 329-336 (1996). This increases the weight of the heart relative to whole body weight. The cardiotoxicity assay herein below is used to test compounds for potentially adverse cardiac effects by measuring their effect on the heart-to-body weight ratio.
Two groups each of six male Sprague Dawley rats (Harlan Sprague Dawley, Inc., Indianapolis, Ind.) (each weighing from approximately 220 grams to 235 grams) are utilized. The first group is a vehicle control group and the second group is a test compound group. The length of the assay is 30 days, with treatment of vehicle or test compound in vehicle daily for 28 of those days as described below.
Prior to initiation of the assay, each rat is allowed to acclimate to standard environmental conditions for 5 days. […]

Row | Structure (SMILES) | cardiac-sparing (index C = RT/RV, heart/body weight ratio of test compound group divided by that of vehicle control group; C less than 1.3 = cardiac-sparing)
1 | N[C@@H](Cc1cc(I)c(Oc2ccc(O)c(I)c2)c(I)c1)C(=O)O [Example T3, thyronine] | not cardiac-sparing
2 | N[C@@H](Cc1cc(I)c(Oc2cc(I)c(O)c(I)c2)c(I)c1)C(=O)O [Example T4, thyroxine] | not cardiac-sparing
